This passage reports IC50 results from patent publication US12371428B2 (Exelixis, Inc., priority 2019, dated 2025).

The target in assay [1] is Met (phospho-Met, HGF-stimulated PC-3 prostate cancer cells) (Homo sapiens (Human), UniProt P08581). The assay can be described thus: Met autophosphorylation ELISA in PC-3 cells (Example F). The format is cell-based. To be noted: cellular activity; Met autophosphorylation ELISA in PC-3 cells; read-out: c-Met IC50. A digest of the protocol: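 PC-3 cells, serum-starved 3 h, were treated with compounds (8-point dose curve, 0.3% DMSO final) for 1 h, then stimulated with 100 ng/mL recombinant human HGF for 10 min. Lysate phospho-Met (panTyr) was quantified by sandwich ELISA; IC50 from 4-parameter logistic fit.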
Chain of Met (phospho-Met, HGF-stimulated PC-3 prostate cancer cells) (P08581 25-1390): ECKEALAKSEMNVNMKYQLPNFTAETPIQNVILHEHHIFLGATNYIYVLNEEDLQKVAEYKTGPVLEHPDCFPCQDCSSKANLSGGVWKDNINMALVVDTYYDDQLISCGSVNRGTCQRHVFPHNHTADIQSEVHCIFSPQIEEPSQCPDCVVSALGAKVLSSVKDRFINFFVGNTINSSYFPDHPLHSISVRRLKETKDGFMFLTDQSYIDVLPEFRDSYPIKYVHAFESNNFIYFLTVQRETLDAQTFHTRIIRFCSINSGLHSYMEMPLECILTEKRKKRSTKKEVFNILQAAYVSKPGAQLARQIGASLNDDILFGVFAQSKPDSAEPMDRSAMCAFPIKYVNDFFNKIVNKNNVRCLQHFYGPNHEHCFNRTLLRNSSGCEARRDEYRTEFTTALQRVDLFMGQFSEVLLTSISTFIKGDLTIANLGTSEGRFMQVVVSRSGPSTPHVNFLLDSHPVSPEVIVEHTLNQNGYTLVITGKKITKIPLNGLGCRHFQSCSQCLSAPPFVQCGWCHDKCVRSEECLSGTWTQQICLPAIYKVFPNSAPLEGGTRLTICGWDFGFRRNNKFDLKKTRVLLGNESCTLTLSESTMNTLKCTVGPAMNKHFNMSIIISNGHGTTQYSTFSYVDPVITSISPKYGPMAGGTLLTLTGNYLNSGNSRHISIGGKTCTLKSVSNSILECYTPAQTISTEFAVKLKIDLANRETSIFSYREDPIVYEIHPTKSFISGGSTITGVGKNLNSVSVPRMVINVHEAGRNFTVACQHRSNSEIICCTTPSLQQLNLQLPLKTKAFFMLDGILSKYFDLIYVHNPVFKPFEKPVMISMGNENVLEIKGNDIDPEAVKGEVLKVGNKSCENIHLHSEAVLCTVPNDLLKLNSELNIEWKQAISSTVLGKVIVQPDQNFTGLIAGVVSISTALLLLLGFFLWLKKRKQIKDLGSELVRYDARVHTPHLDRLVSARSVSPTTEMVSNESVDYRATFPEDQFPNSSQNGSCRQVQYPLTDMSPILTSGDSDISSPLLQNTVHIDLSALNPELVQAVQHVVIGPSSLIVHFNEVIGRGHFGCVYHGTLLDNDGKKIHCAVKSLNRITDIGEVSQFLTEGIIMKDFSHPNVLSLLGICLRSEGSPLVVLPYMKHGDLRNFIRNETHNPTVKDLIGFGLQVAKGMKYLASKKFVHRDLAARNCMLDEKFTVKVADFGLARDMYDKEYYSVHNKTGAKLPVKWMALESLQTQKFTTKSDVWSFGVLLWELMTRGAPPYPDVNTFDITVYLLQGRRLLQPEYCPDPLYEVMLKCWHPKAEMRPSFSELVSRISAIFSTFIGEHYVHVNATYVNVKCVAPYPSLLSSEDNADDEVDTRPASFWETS
On the technique in general: An ELISA detects its analyte on a solid surface through an enzyme-linked reagent.

For assay [2], the target named is Human MER (residues 528-999) (Homo sapiens (Human), UniProt Q12866). The assay can be described thus: Human Mer kinase assay, HTRF KinEase (Example C-2). Type of assay: biochemical. How it is done: (§1) Kinase activity and compound inhibition were also investigated using the HTRF® KinEase assay (Cisbio Cat #62TKOPEB) per manufacturer's instructions. In short, compounds were delivered in 300 nL volumes at 10 different concentrations in DMSO (3% final) to empty 384-well assay plates (Corning cat #3824). A mixture of enzyme, […] biotynlated peptide substrate, and buffer in 10 μL volume was added. The assay was started upon the addition of ATP (at Km). The 10 μL reaction was incubated at room temperature. The reaction was stopped upon the addition of detection buffer containing streptavidin-XL665 ([…]) and TK antibody-Eu3+([…]). After a 60 min incubation at room temperature, the fluorescence at 665 nm and 620 nm was read on an Envision microplate reader (Perkin Elmer).
Chain of Human MER (residues 528-999) (Q12866 528-999): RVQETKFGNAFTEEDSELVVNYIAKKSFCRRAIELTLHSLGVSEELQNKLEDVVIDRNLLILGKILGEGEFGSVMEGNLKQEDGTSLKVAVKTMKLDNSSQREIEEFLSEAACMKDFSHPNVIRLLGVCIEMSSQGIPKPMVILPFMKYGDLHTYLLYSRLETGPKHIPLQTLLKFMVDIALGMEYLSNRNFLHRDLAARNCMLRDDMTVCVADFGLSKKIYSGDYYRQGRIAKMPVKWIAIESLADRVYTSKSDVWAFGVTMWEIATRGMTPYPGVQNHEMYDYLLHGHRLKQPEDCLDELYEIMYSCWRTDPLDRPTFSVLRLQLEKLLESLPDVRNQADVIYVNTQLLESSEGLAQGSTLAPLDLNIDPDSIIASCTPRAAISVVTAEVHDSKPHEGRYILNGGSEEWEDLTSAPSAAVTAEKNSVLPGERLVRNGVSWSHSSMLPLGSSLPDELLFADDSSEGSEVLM
(§2) Kinase activity normalized to DMSO (100% activity) and reference compound at […] and (0% activity) was calculated using the fluorescence ratio […]. IC50 values were calculated by nonlinear regression analysis using a 4-parameter logistic curve fit in ActivityBase XE (IDBS).
Example C-2: Human MER (residues 528-999; CarnaBio, 1 ng/well) was also incubated with enzymatic buffer (Cisbio) supplemented with 5 mM MgCl2 and 1 mM DTT. The mixture was added to the pre-plated compounds. The reaction was initiated upon addition of ATP at Km (40 μM). The reaction was incubated at room temperature for 60 min and stopped upon the addition of SA-XL665 and TK-antibody both diluted in EDTA-containing kinase detection buffer (Cisbio). The kinase activity was calculated as stated above and the IC50 values were reported.

The target in assay [3] is Mer (phospho-Mer, MERTK-transfected 293A cells) (Homo sapiens (Human), UniProt Q12866). The assay can be described thus: Mer autophosphorylation ELISA in transient transfected 293A cells (Example H). The format is cell-based. To be noted: cellular activity; Mer autophosphorylation ELISA in transient transfected 293A cells. A digest of the protocol:
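293A cells transiently transfected with human MERTK were treated 1 h in serum-free medium with an 8-point compound dilution (0.3% DMSO final). Lysates were assayed by phospho-Mer sandwich ELISA against a phospho-Mer standard; IC50 came from a 4-parameter logistic fit, normalised to DMSO (100%) and reference-inhibitor (0%) controls.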

In assay [4] the target is Human KDR (residues 790-1356) (Homo sapiens (Human), UniProt P35968). The assay can be described thus: Human KDR kinase assay, HTRF KinEase (Example B-2). Type of assay: biochemical. How it is done: as §1, §2
Chain of Human KDR (residues 790-1356) (P35968 790-1356): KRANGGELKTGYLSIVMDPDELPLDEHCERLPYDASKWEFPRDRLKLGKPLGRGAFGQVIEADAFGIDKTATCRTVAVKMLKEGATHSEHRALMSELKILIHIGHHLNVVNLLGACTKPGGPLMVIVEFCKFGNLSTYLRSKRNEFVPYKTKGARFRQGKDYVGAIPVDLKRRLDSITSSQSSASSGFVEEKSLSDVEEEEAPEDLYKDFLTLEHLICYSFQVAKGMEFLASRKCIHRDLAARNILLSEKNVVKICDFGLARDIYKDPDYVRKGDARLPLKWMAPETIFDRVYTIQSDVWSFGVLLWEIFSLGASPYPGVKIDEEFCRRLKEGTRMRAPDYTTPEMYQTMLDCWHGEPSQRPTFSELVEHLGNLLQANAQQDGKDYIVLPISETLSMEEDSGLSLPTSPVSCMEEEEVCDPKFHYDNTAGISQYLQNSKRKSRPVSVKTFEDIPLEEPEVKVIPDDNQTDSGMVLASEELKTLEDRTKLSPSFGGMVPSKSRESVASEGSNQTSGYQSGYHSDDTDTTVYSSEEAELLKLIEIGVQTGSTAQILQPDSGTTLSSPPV
Example B-2: Human KDR (residues 790-1356; CarnaBio, 0.1 ng/well) was also incubated with enzymatic buffer (Cisbio) supplemented with 5 mM MgCl2, 1 mM MnCl2, and 1 mM DTT. The mixture was added to the pre-plated compounds. The reaction was initiated upon addition of ATP at Km (4.0 μM). The reaction was incubated at room temperature for 40 min and stopped upon the addition of SA-XL665 and TK-antibody both diluted in EDTA-containing kinase detection buffer (Cisbio). The kinase activity was calculated as stated above and the IC50 values were reported.
(In TR-FRET formats the signal depends on donor and acceptor labels being close together.)

Assay [5] addresses KDR (phospho-KDR, VEGF165-stimulated HUVEC cells) (Homo sapiens (Human), UniProt P35968). The assay is described as follows: KDR autophosphorylation ELISA in HUVEC cells (Example G). The format is cell-based. The following applies: cellular activity; KDR autophosphorylation ELISA in HUVEC cells. Put shortly: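 HUVEC cells, serum-starved 24 h, were treated 1 h with an 8-point compound dilution (0.3% DMSO) and then stimulated with 100 ng/mL VEGF165 for 5 min. Phospho-KDR in lysates was quantified by sandwich ELISA against a phospho-KDR standard. IC50 from a 4-parameter logistic fit, normalised between stimulated DMSO and unstimulated controls.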

The target of assay [6] is Human MET (residues 956-1390) (Homo sapiens (Human), UniProt P08581). The assay can be described thus: Human Met kinase assay, HTRF KinEase (Example D-2). The following applies: protocol of Example D-2 (other compounds); read-out: c-Met IC50. The format is biochemical. How it is done: as §1, §2
Example D-2: Human MET (residues 956-1390; CarnaBio, 0.1 ng/well) was also incubated with enzymatic buffer (Cisbio) supplemented with 5 mM MgCl2, 1 mM DTT and 1 mM MnCl2. The mixture was added to the pre-plated compounds. […] The reaction was incubated at room temperature for 40 min and stopped upon the addition of SA-XL665 and TK-antibody both diluted in EDTA-containing kinase detection buffer (Cisbio). The kinase activity was calculated as stated above and the IC50 values were reported.

Where [7] appears, read: protocol of Example C-2 (other compounds).
Setting [8] is: protocol of Example B-2 (other compounds).

Chain of KDR (phospho-KDR, VEGF165-stimulated HUVEC cells) (P35968 20-1356): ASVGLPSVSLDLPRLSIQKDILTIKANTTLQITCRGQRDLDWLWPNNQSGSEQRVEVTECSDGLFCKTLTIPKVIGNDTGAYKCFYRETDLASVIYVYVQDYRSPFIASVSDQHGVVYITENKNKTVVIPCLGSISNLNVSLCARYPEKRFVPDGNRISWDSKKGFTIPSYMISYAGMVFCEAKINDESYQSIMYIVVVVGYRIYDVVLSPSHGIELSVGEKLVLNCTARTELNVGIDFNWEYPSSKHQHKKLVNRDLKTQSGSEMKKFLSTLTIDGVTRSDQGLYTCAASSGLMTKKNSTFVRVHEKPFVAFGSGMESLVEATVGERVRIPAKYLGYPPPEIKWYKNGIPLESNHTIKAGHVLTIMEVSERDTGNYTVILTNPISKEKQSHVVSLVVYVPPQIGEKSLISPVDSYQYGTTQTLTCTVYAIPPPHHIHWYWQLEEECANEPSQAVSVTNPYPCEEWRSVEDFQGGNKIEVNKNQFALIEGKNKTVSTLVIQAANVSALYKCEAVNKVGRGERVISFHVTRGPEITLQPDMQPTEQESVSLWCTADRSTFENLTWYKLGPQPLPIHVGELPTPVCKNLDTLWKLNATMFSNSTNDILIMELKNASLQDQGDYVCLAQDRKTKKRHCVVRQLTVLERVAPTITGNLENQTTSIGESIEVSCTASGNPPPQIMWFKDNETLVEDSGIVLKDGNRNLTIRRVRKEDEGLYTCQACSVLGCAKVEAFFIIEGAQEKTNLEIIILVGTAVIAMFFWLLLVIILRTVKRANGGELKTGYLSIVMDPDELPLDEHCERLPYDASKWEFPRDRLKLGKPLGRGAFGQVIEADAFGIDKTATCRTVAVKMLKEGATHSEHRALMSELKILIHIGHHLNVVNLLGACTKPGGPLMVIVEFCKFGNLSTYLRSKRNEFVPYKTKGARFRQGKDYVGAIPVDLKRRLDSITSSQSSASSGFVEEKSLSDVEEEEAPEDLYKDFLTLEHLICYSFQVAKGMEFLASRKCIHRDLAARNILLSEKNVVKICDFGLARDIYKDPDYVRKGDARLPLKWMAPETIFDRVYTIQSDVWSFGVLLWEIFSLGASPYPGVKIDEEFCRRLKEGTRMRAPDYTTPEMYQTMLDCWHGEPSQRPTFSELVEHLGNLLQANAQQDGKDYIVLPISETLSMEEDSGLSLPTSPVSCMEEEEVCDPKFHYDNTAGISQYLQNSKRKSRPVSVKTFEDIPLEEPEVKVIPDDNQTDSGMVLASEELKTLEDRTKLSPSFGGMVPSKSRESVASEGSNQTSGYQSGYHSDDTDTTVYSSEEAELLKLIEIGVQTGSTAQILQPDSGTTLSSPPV
Chain of Mer (phospho-Mer, MERTK-transfected 293A cells) (Q12866 21-999): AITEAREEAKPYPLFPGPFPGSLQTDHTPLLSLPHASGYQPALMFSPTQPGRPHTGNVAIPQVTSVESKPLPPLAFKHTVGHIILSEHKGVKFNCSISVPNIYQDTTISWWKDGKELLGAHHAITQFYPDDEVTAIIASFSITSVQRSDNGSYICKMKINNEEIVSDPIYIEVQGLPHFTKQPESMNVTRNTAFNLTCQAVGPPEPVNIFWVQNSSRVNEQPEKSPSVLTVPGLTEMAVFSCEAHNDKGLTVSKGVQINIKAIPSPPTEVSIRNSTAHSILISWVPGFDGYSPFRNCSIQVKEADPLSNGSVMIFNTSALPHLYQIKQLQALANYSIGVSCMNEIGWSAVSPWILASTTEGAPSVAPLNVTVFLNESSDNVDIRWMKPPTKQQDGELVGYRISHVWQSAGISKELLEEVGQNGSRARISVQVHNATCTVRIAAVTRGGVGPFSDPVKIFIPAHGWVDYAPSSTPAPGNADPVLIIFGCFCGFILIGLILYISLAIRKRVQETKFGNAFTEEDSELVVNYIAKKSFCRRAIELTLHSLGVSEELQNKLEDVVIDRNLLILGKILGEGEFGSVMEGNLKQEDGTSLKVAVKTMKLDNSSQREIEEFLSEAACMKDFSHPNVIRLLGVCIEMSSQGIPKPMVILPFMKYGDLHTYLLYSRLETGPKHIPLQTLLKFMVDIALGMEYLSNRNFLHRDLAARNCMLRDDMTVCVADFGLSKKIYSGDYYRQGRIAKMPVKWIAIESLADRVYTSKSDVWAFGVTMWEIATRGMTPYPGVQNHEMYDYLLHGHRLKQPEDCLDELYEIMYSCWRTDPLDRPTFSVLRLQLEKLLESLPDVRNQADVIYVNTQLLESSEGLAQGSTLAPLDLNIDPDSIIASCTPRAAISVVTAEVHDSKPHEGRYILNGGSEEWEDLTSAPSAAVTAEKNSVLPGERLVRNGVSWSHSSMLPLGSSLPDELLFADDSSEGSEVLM

Regarding `COc1cc2nccc(Oc3ccc(NC(=O)c4ccnn(-c5ccc(F)cc5C)c4=O)cc3F)c2nc1OC` [Compound 527, N-[4-[(6,7-dimethoxy-1,5-naphthyridin-4-yl)oxy]-3-fluorophenyl]-2-(4-fluoro-2-methylphenyl)-3-oxopyridazine-4-carboxamide], the IC50 – broadly, the concentration needed to halve the response being measured – in assay [1] is under 0.1 µM; in assay [2] (protocol of Example C-2), under 0.1 µM; in assay [3] it was under 0.1 µM; in assay [4] (protocol of Example B-2), 0.1 to 0.3 µM; in assay [5], under 0.1 µM.
Turning to `COc1cc2nccc(Oc3ccc(NC(=O)c4ccnn(-c5ccc(F)cc5C)c4=O)cc3)c2nc1OC` [Compound 528, N-[4-[(6,7-dimethoxy-1,5-naphthyridin-4-yl)oxy]phenyl]-2-(4-fluoro-2-methylphenyl)-3-oxopyridazine-4-carboxamide], the concentration for half-maximal inhibition (IC50) in assay [1] is under 0.1 µM; in assay [2] (protocol of Example C-2) it was under 0.1 µM; in assay [3], under 0.1 µM; in assay [4] (protocol of Example B-2), 0.1 to 0.3 µM; in assay [5], under 0.1 µM.
As for `COc1cnc2c(Oc3ccc(NC(=O)c4c(C)c(Cl)c(C)n(-c5ccc(F)cc5)c4=O)cc3)ccnc2c1` [Compound 310, 5-Chloro-1-(4-fluorophenyl)-N-[4-[(7-methoxy-1,5-naphthyridin-4-yl)oxy]phenyl]-4,6-dimethyl-2-oxopyridine-3-carboxamide], the concentration for half-maximal inhibition (IC50) in assay [1] is under 0.1 µM; in assay [2] (setting [7]), 0.1 to 0.3 µM; in assay [3], under 0.1 µM; in assay [4] (setting [8]), over 0.3 µM; in assay [5], over 0.3 µM.
Regarding `COc1cnc2c(Oc3ccc(NC(=O)c4ccnn(-c5ccc(F)cc5C)c4=O)cc3F)ccnc2c1` [Compound 529, N-[3-fluoro-4-[(7-methoxy-1,5-naphthyridin-4-yl)oxy]phenyl]-2-(4-fluoro-2-methylphenyl)-3-oxopyridazine-4-carboxamide], the 50% inhibitory concentration (IC50) in assay [1] was under 0.1 µM; in assay [2] (protocol of Example C-2), 0.1 to 0.3 µM; in assay [3] it was under 0.1 µM; in assay [4] (protocol of Example B-2), over 0.3 µM; in assay [5] it was under 0.1 µM.
For the compound `COc1cc2nccc(Oc3ccc(NC(=O)c4c(OC)c(C)cn(-c5ccc(F)cc5)c4=O)cc3F)c2nc1OC` [Compound 372, N-[4-[(6,7-dimethoxy-1,5-naphthyridin-4-yl)oxy]-3-fluorophenyl]-1-(4-fluorophenyl)-4-methoxy-5-methyl-2-oxopyridine-3-carboxamide], the IC50 in assay [1], in assay [2] (setting [7]), in assay [3], in assay [4] (setting [8]) and in assay [5] was under 0.1 µM each time.
`COc1cc2nccc(Oc3ccc(NC(=O)c4c(C)c(C)c(C)n(-c5ccc(F)cc5)c4=O)cc3F)c2nc1OC` [Compound 306, N-[4-[(6,7-Dimethoxy-1,5-naphthyridin-4-yl)oxy]-3-fluorophenyl]-1-(4-fluorophenyl)-4,5,6-trimethyl-2-oxopyridine-3-carboxamide]: the half-inhibitory concentration (IC50) is under 0.1 µM in assay [1]; under 0.1 µM in assay [2] (setting [7]); under 0.1 µM in assay [3]; over 0.3 µM in assay [4] (setting [8]); 0.1 to 0.3 µM in assay [5].
As for `COc1cnc2c(Oc3ccc(NC(=O)c4c(C)c(Cl)c(C)n(-c5ccc(F)cc5)c4=O)cc3F)ccnc2c1` [Compound 309, 5-Chloro-N-[3-fluoro-4-[(7-methoxy-1,5-naphthyridin-4-yl)oxy]phenyl]-1-(4-fluorophenyl)-4,6-dimethyl-2-oxopyridine-3-carboxamide], the IC50 was under 0.1 µM in assay [1]; under 0.1 µM in assay [2] (setting [7]); under 0.1 µM in assay [3]; over 0.3 µM in assay [4] (setting [8]); over 0.3 µM in assay [5].
As to `Cc1ccc(C(=O)Nc2ccc(Oc3ccnc4cccnc34)c(F)c2)c(=O)n1-c1ccc(F)cc1` [Compound 302, N-[3-Fluoro-4-(1,5-naphthyridin-4-yloxy)phenyl]-1-(4-fluorophenyl)-6-methyl-2-oxopyridine-3-carboxamide], the half-maximal inhibitory concentration (IC50) in assay [1] was under 0.1 µM; in assay [2] (setting [7]), under 0.1 µM; in assay [3], under 0.1 µM; in assay [4] (setting [8]), over 0.3 µM; in assay [5] it was 0.1 to 0.3 µM.
As for `CNC(=O)Cc1cc2c(Oc3ccc(NC(=O)c4cnc(C)c(-c5ccc(F)cc5)c4O)cc3F)ccnc2cc1OC` [Compound 376, N-[3-fluoro-4-[7-methoxy-6-[2-(methylamino)-2-oxoethyl]quinolin-4-yl]oxyphenyl]-5-(4-fluorophenyl)-4-hydroxy-6-methylpyridine-3-carboxamide], the IC50 in assay [1], in assay [2] (setting [7]), in assay [3], in assay [4] (setting [8]) and in assay [5] was under 0.1 µM each time.
Turning to `COc1cc2nccc(Oc3ccc(NC(=O)c4ccc(CO)n(-c5ccc(F)cc5)c4=O)cc3F)c2nc1OC` [Compound 357, N-[4-[(6,7-dimethoxy-1,5-naphthyridin-4-yl)oxy]-3-fluorophenyl]-1-(4-fluorophenyl)-6-(hydroxymethyl)-2-oxopyridine-3-carboxamide], the IC50 in assay [1], in assay [2] (setting [7]), in assay [3] and in assay [4] (setting [8]) was under 0.1 µM throughout.
Take `COc1ccc2nccc(Oc3ccc(NC(=O)c4cnc(C)n(-c5ccc(F)cc5)c4=O)cc3)c2n1` [Compound 385, 1-(4-fluorophenyl)-N-[4-[(6-methoxy-1,5-naphthyridin-4-yl)oxy]phenyl]-2-methyl-6-oxopyrimidine-5-carboxamide]: the half-maximal inhibitory concentration (IC50) was under 0.1 µM in assay [1]; under 0.1 µM in assay [2] (setting [7]); under 0.1 µM in assay [3]; over 0.3 µM in assay [4] (setting [8]); over 0.3 µM in assay [5].
For the compound `COc1cc2nccc(Oc3ccc(NC(=O)c4c(C)c(Br)c(C)n(-c5ccc(F)cc5)c4=O)cc3F)c2nc1OC` [Compound 305, 5-Bromo-N-[4-[(6,7-dimethoxy-1,5-naphthyridin-4-yl)oxy]-3-fluorophenyl]-1-(4-fluorophenyl)-4,6-dimethyl-2-oxopyridine-3-carboxamide], the concentration for half-maximal inhibition (IC50) in assay [1] was under 0.1 µM; in assay [2] (setting [7]), under 0.1 µM; in assay [3] it was under 0.1 µM; in assay [4] (setting [8]) it was over 0.3 µM; in assay [5] it was 0.1 to 0.3 µM.
As for `COc1cc2nccc(Oc3ccc(NC(=O)c4cnc(C)n(-c5ccc(F)cc5)c4=O)cc3)c2nc1OC` [Compound 267, N-[4-[(6,7-Dimethoxy-1,5-naphthyridin-4-yl)oxy]phenyl]-1-(4-fluorophenyl)-2-methyl-6-oxopyrimidine-5-carboxamide], the IC50 is under 0.1 µM in assay [1], over 0.3 µM in assay [2] (setting [7]), over 0.3 µM in assay [4] (setting [8]) and over 0.3 µM in assay [5].
Take `COc1cnc2c(Oc3ccc(NC(=O)c4c5n(cc(-c6ccc(F)cc6)c4=O)CCC5)cc3F)ccnc2c1` [Compound 405, N-[3-fluoro-4-[(7-methoxy-1,5-naphthyridin-4-yl)oxy]phenyl]-6-(4-fluorophenyl)-7-oxo-2,3-dihydro-1H-indolizine-8-carboxamide]: the concentration for half-maximal inhibition (IC50) is under 0.1 µM in assay [1]; under 0.1 µM in assay [2] (setting [7]); under 0.1 µM in assay [6]; under 0.1 µM in assay [3]; over 0.3 µM in assay [5].
